Where two headings read alike, the source gives them in different places.
Experiments:
[1] = tested on: A549 xenografted tumors; assay: Intratumoral siRNA treatment of established A549 tumors in CD-1 nude mice; type: in vivo, mouse
Experimental: A549 cells (6−8×10^6 cells) were s.c. inoculated into CD-1 nude mice as described above. When tumors reached an average volume of approximately 100 mm^3, the tumor-bearing mice were randomly assigned into three different treatment groups (RRM1 siRNA, control siRNA and PBS) with 5 to 6 mice in each group. There were no significant differences in tumor volumes among groups prior to the initiation of treatments. Mice were anesthetized by gaseous isoflurane and 50 μl siRNA or PBS was injected directly into tumors using a 30-gauge needle. Two experiments were conducted. In the first experiment (IT#1), the animals received a dose of 50 μg of siRNA in each intratumoral (i.t.) injection and the injections were performed 3 times per week for 2 weeks. In the second experiment (IT#2), 25 μg siRNA was used and mice were injected 3 times per week for 3 weeks. The tumor volume was determined immediately before each injection by perpendicular measurements of the shortest and longest diameters as described above.

[2] = tested on: A549 xenograft tumor; assay: Xenograft tumor growth of A549 cells transfected with siRNA pre-implantation in CD-1 nude mice; type: in vivo, mouse
Experimental: To determine the effect of RRM1 knockdown on tumor growth, A549 cells (human lung cancer cell line; ATCC No. CCL-185) were reverse-transfected prior to implantation in CD-1 nude mice. In 175 cm^2 culture flasks, 10×10^6 A549 cells (in RPMI supplemented with 10% fetal calf serum) were added to pre-made lipoplexes. To make lipoplexes, Lipofectamine RNAiMAX in serum-free RPMI was added to an equal volume of serum-free RPMI containing siRNA (RRM1-2; SEQ ID NO: 4831 (DNA), and SEQ ID NO: 5137 (RNA)) and a control siRNA (SEQ ID NO: 4804 (DNA), and SEQ ID NO: 5301 (RNA)). After addition of cells, the final concentration of siRNA in the flask was 10 nM. Untransfected cells served as a further control. Flasks were incubated at 37° C. for 24 h to allow transfection to proceed.
The cells were harvested by trypsinization 24 h after the transfection, washed twice in PBS and viable cells were counted. Equal numbers of cells (1×10^7) were inoculated into CD-1 nude mice (n=7-9). Briefly, 5 to 7 weeks old nude mice were subcutaneously (s.c.) injected in the right flank with A549 cells in 100 μl PBS. Tumor growth was monitored 3 times per week by measuring tumor sizes using a digital caliper. Tumor volume was expressed in […] using the formula: V=a^2×b×0.52, where a and b represent the minimum and maximum tumor diameter, respectively. Mean tumor volumes calculated from each measurement were then plotted in a standard graph to compare the tumor growth of transfected cells to that of control.
To determine the effect of siRNA-mediated knockdown of HK-II, CAD, IMPDH2, RRM2, SLC16A1 and SLC29A1 on tumor growth, A549 cells (human lung cancer cell line; ATCC No. CCL-185) were reverse-transfected prior to implantation in CD-1 nude mice as described above with siRNAs given in SEQ ID NO: 5307 (DNA), and SEQ ID NO: 5304 (RNA) for RRM2, SEQ ID NO: 4932 (DNA), and SEQ ID NO: 5227 (RNA) for ENT1, SEQ ID NO: 4813 (DNA), and SEQ ID NO: 5119 (RNA) for HK-II, SEQ ID NO: 4827 (DNA), and SEQ ID NO: 5133 (RNA) for CAD, SEQ ID NO: 4879 (DNA), and SEQ ID NO: 5182 (RNA) for IMPDH2 and SEQ ID NO: 4924 (DNA), and SEQ ID NO: 5219 (RNA) for SLC16A1, respectively. The siRNA given in SEQ ID NO: 4804 (DNA), and SEQ ID NO: 5301 (RNA) was used as control.
In two separate experiments, CD-1 mice were divided into five groups that received untransfected A549 cells, cells transfected with control siRNA or three different siRNAs (as listed above), respectively. Cells were transfected in vitro using the method as described in Example 8, and 24 h after transfection, s.c. inoculated into mice. Tumor growth was measured 3 times per week. In the first experiment, mice received cells transfected with siRNA targeting RRM2, HK-II or SLC29A1 and were monitored for 33 days. In the second experiment, mice received cells transfected with siRNA targeting CAD, IMPDH2 or SLC16A1, and were monitored for 26 days. […] Similarly, preliminary data indicated tumor growth rate was reduced for the groups receiving cells transfected with siRNA targeting CAD and SLC16A1. Twenty-six days after cell inoculation, the tumor volume for mice with cells transfected with siRNA targeting CAD or SLC16A1 was 97.2±7.3 mm^3 or 110.1±28.1 mm^3, respectively.

[3] = tested on: A549 cells; assay: Growth inhibition of siRNA-transfected A549 cells, SYBR Green I DNA content; type: cell-based, human; settings: 10 nM siRNA; DNA content 96 hours after transfection
How it was run: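 A549 cells reverse-transfected with 10 nM Stealth siRNAs via Lipofectamine RNAiMAX, seeded at 5×10^3 cells/cm^2 in RPMI 1640/10% FCS; non-specific siRNA control. DNA content read 96 h post-transfection by SYBR Green I fluorescence (ex 485/em 535 nm) after freeze-thaw and Triton X-100 lysis; mean of three wells.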

[4] = tested on: RRM1 mRNA; assay: RRM1 mRNA level by quantitative RT-PCR in A549 cells; type: cell-based, human; settings: 0.01 nM siRNA; 24 h post-transfection
Experimental: RNA was purified from cells using Trizol® extraction as per the manufacturer's protocol (Invitrogen). cDNA was prepared by digesting approximately 200 ng purified RNA with DNAse I (Invitrogen) for 15 minutes at room temperature, followed by 15 minutes at 65° C. in the presence of 25 mM EDTA. 30 ng random primers were added and incubated for 10 minutes at room temperature, 1 minute on ice; Superscript III polymerase (Invitrogen) was added in presence of 5 nM DTT (Sigma, St Louis, Mo.) and 1 mM deoxyribonucleotides (Invitrogen), and the reaction incubated at 25° C. for 5 minutes, followed by an hour at 55° C. cDNA was diluted 1:3 in 10 mM Tris pH 7.0, and quantitative RT-PCR carried out on an ABI Prism 7900HT (Applied Biosciences, Inc., Foster City, Calif.) using FastStart TaqMan SYBRGreen (Roche, Basel, Switzerland) and specific primers at 360 nM for RRM1 and RRM2 and the housekeeping genes HPRT and Lamin. Primer sequence pairs used for RRM1, RRM2, HPRT and lamin are given in SEQ ID NO: 4881 and 4882; 4883 and 4884; 4885 and 4886; 4887 and 4888 respectively.

[5] = tested on: A549 cells; assay: MTT cell proliferation assay of A549 cells transfected with thymidylate synthase siRNA; type: cell-based, human; settings: 6, 12 and 50 nM siRNA; 72 h
Experimental: siRNA mediated silencing in Human A549 cells A549 cells (ATCC No. CCL-185), a human lung cancer cell line, were cultured in RPMI 1640 medium with 5% v/v dialyzed fetal calf serum. Cells were seeded at a density of 2×10^4 cells/100 μl in 96-well plates. Stealth™ siRNA duplexes targeting the thymidylate synthase (SEQ ID NO: 23) gene were transfected at concentrations of 6, 12, and 50 nM into the A549 cells using Lipofectamine 2000 transfection reagent (Invitrogen). After 72 h, cell viability was assessed by measuring cell proliferation using a standard MTT assay (Mosman, J. Immunol. Methods 65:55-63, 1983).

[6] = tested on: A549 cells; assay: 5FU toxicity in A549 cells after TYMS or DHFR knockdown, SYBR Green; type: cell-based, human; settings: 5FU continuous for 3 days, read-out: IC50 value of 5FU following TYMS knockdown, A549
Experimental: (§1) HCT-116 and A549 cells were transfected as described above with 0.1, 1.0 and 10 nM of three TYMS-specific siRNAs, labeled TYMS-1, TYMS-2 and TYM-3 (SEQ ID NO: 4833-4835 (DNA), and SEQ ID NO: 5139-5141 (RNA), or 1.0 and 10 nM control siRNAs (809-ctrl; SEQ ID NO: 4805 (DNA), and SEQ ID NO: 5302 (RNA) and 81ctrl; SEQ ID NO: 4804 (DNA), and SEQ ID NO: 5301 (RNA)). HCT-116 and A549 cells were also similarly transfected with 0.1, 1.0 and 10 nM of three DHFR-specific siRNAs, labeled DHFR-1, DHFR-2 and DHFR-3 (SEQ ID NO: 4836-4838 (DNA), and SEQ ID NO: 5142-5144 (RNA)), or control siRNA (SEQ ID NO: 4805 (DNA), and SEQ ID NO: 5302 (RNA)). Twenty four hours after transfection, cells were exposed to 5FU using a serial dilution starting at 44 μM, in medium containing either 10% normal FCS or 10% dialyzed FCS as described above. 5FU treatment was continuous for 3 days, at which time cell growth was analyzed by measuring DNA content per well using the SYBR Green assay outlined above. […] This combinatorial inhibitory effect was further increased when experiments were done in medium containing dialyzed FCS (FIGS. 27D-F; FIGS. 28D-F).
(§2) FIGS. 29 and 30 show transfection with DHFR siRNA similarly led to a dose-dependent increase in growth inhibition above that caused by the drug alone (control siRNA-transfected cells) in HCT-116 cells (FIGS. 29A-C), and A549 cells (FIGS. 30A-C). This combinatorial inhibitory effect was further increased when experiments were done in medium containing dialyzed FCS (FIGS. 29D-F; FIGS. 30D-F). The changes in the IC50 value for 5FU in HCT-116 and A549 cells following TYMS knockdown by individual siRNAs are listed in Table 16 below.

[7] = tested on: HCT-116 cells; assay: 5FU toxicity in HCT-116 cells after TYMS or DHFR knockdown, SYBR Green; type: cell-based; settings: cells transfected with 0.1 nM siRNA; 5FU continuous for 3 days; read-out: IC50 value of 5FU following TYMS knockdown, HCT-116
Experimental: as §1, §2

SEQ ID NO: 4804: non-specific control siRNA against an irrelevant target (chain 1 AGCAGAGGGAATTCATCTCTCAGGC; chain 2 AGCAGAGGGAAUUCAUCUCUCAGGC; chemistry not given here; one strand in two spellings) [reference compound]
average tumor volume ([1]; IT#1: 50 μg i.t. 3 times per week for 2 weeks, day 15 after treatment initiation): 238.7±41.4 mm^3 | tumor volume ([1]; IT#2: 25 μg i.t. 3 times per week for 3 weeks, day 21 post-treatment initiation): 248.9±37.3 mm^3 | average tumor size ([2]; six weeks after the cell inoculation, 10 nM siRNA pre-implantation): 370.7±63.8 mm^3 | average tumor size ([2]; thirty-three days after the cell inoculation, preliminary data): 172.3±36.1 mm^3 | tumor volume ([2]; twenty-six days after cell inoculation, preliminary data): 154.3±23.7 mm^3

SEQ ID NO: 4830: Stealth siRNA targeting RRM1 (chain 1 AAGATCTGCTTATTCAGTAACTGGG; chain 2 AAGAUCUGCUUAUUCAGUAACUGGG; Commercial Stealth siRNA duplex, modification pattern not given here; one strand in two spellings)
Growth Inhibition in A549 cells [3]: ++ (inhibits by at least 75%) | RRM1 mRNA expression [4]: effectively silenced

SEQ ID NO: 4833: siRNA targeting TYMS (chain 1 AGCAGAGGGAATTCATCTCTCAGGC; chain 2 AGCAGAGGGAAUUCAUCUCUCAGGC; chemistry not given here; one strand in two spellings)
cell growth (MTT assay) [5]: dose-dependent inhibition of cell growth | Growth Inhibition in A549 cells [3]: + (inhibits by at least 50%) | IC50 ([6]; cells transfected with 0.1 nM siRNA): 340 nM | IC50 ([6]; cells transfected with 1 nM siRNA): 110 nM | IC50 ([6]; cells transfected with 10 nM siRNA): 140 nM | IC50 [7]: 100 nM
